ChEMBL document CHEMBL2331296, “Synthesis of tetrahydroxybiphenyls and tetrahydroxyterphenyls and their evaluation as amyloid-β aggregation inhibitors” (Bioorg Med Chem Lett, 2013)
Calls of active or inactive are those of the source. No cut-off for these calls is given here.

Tests used:
[1] = target: T1, Amyloid-beta precursor protein (Homo sapiens, UniProt P05067); test: Displacement of congo red from amyloid-beta40 (unknown origin) assessed as reduction of congo red-amyloid beta40 complex level; design: scale not given: the % may be the effect or the level left
T1 sequence (P05067 whole entry): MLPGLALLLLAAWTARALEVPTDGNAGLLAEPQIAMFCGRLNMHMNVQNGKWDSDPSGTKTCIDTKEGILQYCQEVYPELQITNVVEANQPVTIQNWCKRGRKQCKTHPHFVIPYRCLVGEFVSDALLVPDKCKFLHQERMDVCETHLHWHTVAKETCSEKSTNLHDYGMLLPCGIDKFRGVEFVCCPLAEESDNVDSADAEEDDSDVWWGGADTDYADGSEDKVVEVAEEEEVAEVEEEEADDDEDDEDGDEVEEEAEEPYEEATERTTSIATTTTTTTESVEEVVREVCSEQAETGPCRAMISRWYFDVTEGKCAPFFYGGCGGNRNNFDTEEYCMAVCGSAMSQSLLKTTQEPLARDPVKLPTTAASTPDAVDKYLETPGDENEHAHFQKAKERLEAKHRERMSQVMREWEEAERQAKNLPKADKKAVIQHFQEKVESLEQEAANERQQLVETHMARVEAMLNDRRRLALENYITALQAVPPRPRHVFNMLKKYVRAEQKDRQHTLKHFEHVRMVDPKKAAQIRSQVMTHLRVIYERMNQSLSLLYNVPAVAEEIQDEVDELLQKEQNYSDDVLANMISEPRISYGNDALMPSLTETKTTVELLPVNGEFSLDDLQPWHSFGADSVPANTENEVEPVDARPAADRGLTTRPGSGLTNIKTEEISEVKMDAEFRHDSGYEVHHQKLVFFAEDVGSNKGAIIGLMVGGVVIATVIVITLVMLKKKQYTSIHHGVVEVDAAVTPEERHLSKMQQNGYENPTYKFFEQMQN

[2] = target: T1, Amyloid-beta precursor protein; test: Inhibition of amyloid-beta40 (unknown origin) aggregation by congo red spectral-shift assay
[3] = target: T1, Amyloid-beta precursor protein; test: Inhibition of amyloid-beta40 (unknown origin) aggregation at 250 uM by congo red spectral-shift assay

Compound: Oc1ccc(-c2ccc(O)c(O)c2)cc1O
- Activity [1]: 2.6%
- IC50 [2]: 25 µM

Compound: Oc1ccc(-c2ccccc2-c2ccc(O)c(O)c2)cc1O
- Activity [1]: 2.6%
- Activity [3]: inactive
- IC50 [2]: 67.5 µM

Compound: Oc1ccc(-c2cccc(-c3ccc(O)c(O)c3)c2)cc1O
- Activity [1]: 2.6%
- Activity [3]: inactive
- IC50 [2]: 92.5 µM

Compound: Oc1ccc(-c2ccc(-c3ccc(O)c(O)c3)cc2)cc1O
- Activity [3]: Active
